Read-outs that look alike come from different tables or passages of the source.

Test [1] deals with Hela cells. Put plainly: Proliferation inhibition of Hela cells (Luminescence ATP Detection, ATPlite). It is filed as cell-based. The settings on record: Homo sapiens, 72 hours. How it is done: (§1) I. Proliferation Inhibitory of the Compound on COLO 205 Cells and Hela Cells.
(§2) COLO205 cells, purchased from SIBS, generation P11; Hela purchased from ATCC, generation P13.
Cell culture and inoculation: on the first day of the experiment, cells in normal culture were taken in their exponential growth state, digested and dispersed, the cell density was adjusted to 9×10^3 cells/mL, and 40 μL per well were inoculated into 384-well cell culture plates; after inoculation was completed, the microplates were placed at 37° C. and 5% CO2 for incubation.
Drug treatment of cells: on the second day of the experiment, microplates were removed from the incubator, 9× compound were added to each well in the microplate, and 5 μL was added to each well, wherein there were 2 replicate wells for each drug concentration and 10 drug concentrations for each compound. According to different cell lines, the initial concentration of each compound was different, after the completion, the microplate was cultured at 37° C. and 5% CO2 for 72 hours.
Data collection: the microplates were removed from the incubator and equilibrated at room temperature for 30 minutes. 40 μL of ATPlite reaction mixture after room temperature equilibrium was added to each well, the solution was shaken at room temperature of 1300 rpm for 2 minutes, and then the microplate was placed in a HERAEUS Multifuge X1R centrifuge at 2000 rpm for 1 minute; after equilibrium at room temperature for 10 minutes, the fluorescence signal value was measured on EnVision™.
(§3) Calculation of cell viability: Cell viability(%)=signal value of administration/signal value of controlx 100%. Graphpad Prism 5.0 was used to fit Log(inhibitor) vs. response-Variable slope (four parameters) curves to the fluorescence signal values at each concentration, and the corresponding IC50 (half maximal inhibitory concentration) was calculated.
For orientation: Cellular ATP, detected with luciferase, serves as a proxy for viable cell number.

Test [2] deals with T1, WEE1 kinase (Homo sapiens, UniProt P30291).
T1 construct: purchased CarnaBiosciences, Inc. 05-177
T1 sequence (P30291 whole entry): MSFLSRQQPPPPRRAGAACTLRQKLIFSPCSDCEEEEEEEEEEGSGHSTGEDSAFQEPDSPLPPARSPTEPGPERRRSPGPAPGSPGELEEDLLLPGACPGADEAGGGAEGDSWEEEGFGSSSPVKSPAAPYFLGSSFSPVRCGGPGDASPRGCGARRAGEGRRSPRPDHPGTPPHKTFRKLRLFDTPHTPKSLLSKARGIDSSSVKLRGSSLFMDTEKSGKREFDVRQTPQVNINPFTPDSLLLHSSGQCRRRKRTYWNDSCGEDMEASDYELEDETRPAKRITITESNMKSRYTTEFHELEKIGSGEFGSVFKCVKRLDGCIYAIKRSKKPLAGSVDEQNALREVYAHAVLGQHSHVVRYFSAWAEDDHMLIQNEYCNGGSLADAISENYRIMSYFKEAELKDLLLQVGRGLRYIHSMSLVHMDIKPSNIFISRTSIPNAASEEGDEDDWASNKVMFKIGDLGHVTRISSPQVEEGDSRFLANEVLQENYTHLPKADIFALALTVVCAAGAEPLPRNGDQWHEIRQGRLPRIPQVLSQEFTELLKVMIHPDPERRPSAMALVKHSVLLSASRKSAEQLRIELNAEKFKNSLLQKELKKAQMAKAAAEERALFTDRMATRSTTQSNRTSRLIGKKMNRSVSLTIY
The test can be described thus: Inhibitory effect on WEE1 kinase in vitro (ELISA). In kind it is biochemical. The settings on record: ATP concentration of Km (12 μM), WEE1 0.15 ng/μL, 60 min. The procedure:
I. Inhibitory Effect of Compound on WEE1 Kinase In Vitro
The tested compounds were screened on WEE1 kinase with ATP concentration of Km by ELISA. Three compounds were screened on WEE1 kinase to evaluate the kinase inhibitory activity of the tested compounds. In the detection process, the initial concentration of the tested compounds was all selected as 100 nM, and each compound was selected with 6 gradient dilution concentrations, the gradient dilution ratio was 4-fold, and two replicate wells were detected for each concentration, MK1775 was used as the standard control.
1. Coating substrate: 1) An appropriate volume of substrate storage solution protein tyrosinase (PTK) substrate (poly-Glu-Tyr) was taken, diluted 10 times with PBS, and the concentration was diluted from […]. The mixture was added to a high adsorption 96-well plate at 125 μL per well. The plate was placed in an incubator at 37° C. for overnight coating. 2) After 24 hours, the 96-well plate was taken out, the liquid in the 96-well plate was poured out, cleaned with washing buffer for 3 times, and the incubator at 37 was inverted and dried for 2 hours.
3. Enzyme reaction stage: 1) WEE1 kinase and ATP were prepared into 2× enzyme solution and 4× ATP solution respectively with 1× reaction buffer.
4. Reaction termination stage: 1) the reaction mixture in the plate was poured out, 200 μL of washing buffer was added to each well, and washed for 5 times; the primary antibody P-Tyr (PY99) (dilution ratio 1:2000) was added, 100 μL per well, at room temperature for 30 min. 2) The primary antibody in the plate was poured out, 200 μL of washing buffer was added to each well, and washed for 5 times; the second antibody Anti-mouse IgG HRP-linked Antibody (dilution ratio 1:2000) was added, 100 μL per well, at room temperature for 30 min. 3) The secondary antibody in the plate was poured out, washed 5 times with washing buffer, and TMB was added, 100 μL per well, and colored for 10-30 min, depending on the color depth. The reaction was terminated with 1N sulfuric acid before reading.
5. […] 2) Graphpad Prism 5.0 was used to fit Log(inhibitor) vs. response-Variable slope (four parameters) curves to the data, and the corresponding IC50 (half maximal inhibitory concentration) was calculated.

In test [3] the test system is COLO 205 cells. Put plainly: Proliferation inhibition of COLO 205 cells (Luminescence ATP Detection, ATPlite). It is filed as cell-based. The settings on record: Homo sapiens; p53-deficient cell line COLO 205, 72 hours. The procedure: as §1, §2
Drug treatment of cells: on the third day of the experiment, microplates were removed from the incubator, 9× compound were added to each well in the microplate, and 5 μL was added to each well, wherein there were 2 replicate wells for each drug concentration and 10 drug concentrations for each compound. According to different cell lines, the initial concentration of each compound was different, after the completion, the microplate was cultured at 37° C. and 5% CO2 for 72 hours.
Data collection: The microplates were removed from the incubator and equilibrated at room temperature for 30 minutes. 100 μL of ATPlite reaction mixture after room temperature equilibrium was added to each well, the solution was shaken at room temperature of 1300 rpm for 2 minutes, and then the microplate was placed in a HERAEUS Multifuge X1R centrifuge at 2000 rpm for 1 minute; after equilibrium at room temperature for 10 minutes, the fluorescence signal value was measured on EnVision™.
as §3

Usually IC50 stands for the concentration at which inhibition is half-maximal. For the compound `C=CCn1c(=O)c2cnc(Nc3ccc(N4C[C@@H]5CN(C6CCC6)C[C@@H]5C4)cc3)nc2n1-c1ccc2c(n1)C(O)CC2` (some centres unmarked) [Compound I-38], the IC50 came to 134 nM in test [1], 2.43 nM in test [2] (read-out: WEE1 IC50) and 451 nM in test [3].
In the same order, the values of `C=CCn1c(=O)c2cnc(Nc3ccc(N4CC5(CCN(CC)CC5)C4)cc3)nc2n1-c1ccc2c(n1)C(O)CC2` (centres unmarked) [Compound I-11] are 317 nM, 11.3 nM and 1190 nM.
On to `C=CCn1c(=O)c2cnc(Nc3ccc(N4CCC5(CCN(C)CC5)CC4)cc3)nc2n1-c1ccc2c(n1)C(O)CC2` (centres unmarked) [Compound I-9, 2-allyl-1-(7-hydroxy-6,7-dihydro-5H-cyclopenta[b]pyridin-2-yl)-6-((4-(9-methyl-3,9-diazaspiro[5.5]undecan-3-yl)phenyl)amino)-1,2-dihydro-3H-pyrazolo[3,4-d]pyrimidin-3-one], for which the IC50 in test [1] amounted to 191 nM; in test [2] (read-out: WEE1 IC50) it was 2.87 nM; in test [3], 614 nM.
In the case of `C=CCn1c(=O)c2cnc(Nc3ccc(N4CCN(C)CC4)cc3)nc2n1-c1ccc2c(n1)C(O)CC2` (centres unmarked) [Compound I-1, 2-allyl-1-(7-hydroxy-6,7-dihydro-5H-cyclopenta[b]pyridin-2-yl)-6-((4-(4-methylpiperazin-1-yl)phenyl)amino)-1,2-dihydro-3H-pyrazolo[3,4-d]pyrimidin-3-one], the IC50 in test [1] was found to be 495 nM; in test [2] (WEE1 IC50, nM), 2.85 nM; in test [3] it was 1880 nM.
Turning to `C=CCn1c(=O)c2cnc(Nc3ccc(N4CC5(CCN(C)CC5)C4)cc3)nc2n1-c1ccc2c(n1)C(O)CC2` (centres unmarked) [Compound I-10], the figures for the IC50 in test [1], in test [2] (read-out: WEE1 IC50) and in test [3] were 206 nM, 8.59 nM and 920 nM, respectively.
On to `C=CCn1c(=O)c2cnc(Nc3ccc(CN4CCN(C)CC4)cc3)nc2n1-c1ccc2c(n1)C(O)CC2` (centres unmarked) [Compound I-7], for which the IC50 in test [1] was 2900 nM; in test [2] (read-out: WEE1 IC50) it was 9.69 nM.
Take `C=CCn1c(=O)c2cnc(Nc3ccc(C4CCN(C)CC4)cc3)nc2n1-c1ccc2c(n1)C(O)CC2` (centres unmarked) [Compound I-3]: the IC50 was 434 nM in test [1], 2.68 nM in test [2] (read-out: WEE1 IC50) and 5150 nM in test [3].
In the same order, the values of `C=CCn1c(=O)c2cnc(Nc3ccc(N4CCC(CN(C)C)CC4)cc3)nc2n1-c1ccc2c(n1)C(O)CC2` (centres unmarked) [Compound I-5, 2-allyl-6-((4-(4-((dimethylamino)methyl)piperidin-1-yl)phenyl)amino)-1-(7-hydroxy-6,7-dihydro-5H-cyclopenta[b]pyridin-2-yl)-1,2-dihydro-3H-pyrazolo[3,4-d]pyrimidin-3-one] are 392 nM, 3.62 nM and 2550 nM.
Consider `C=CCn1c(=O)c2cnc(Nc3ccc(N4C[C@H]5CNC[C@H]5C4)cc3)nc2n1-c1ccc2c(n1)C(C)(O)CCC2` (stereo partly drawn) [Compound I-33, 2-allyl-6-((4-((3aR, 6aS)hexahydropyrrolo[3,4-c]pyrrolo-2(1H)-yl)phenyl)amino)-1-(8-hydroxy-8-methyl-5,6,7,8-tetrahydroquinolin-2-yl)-1,2-dihydro-3H-pyrazolo[3,4-d]pyrimidin-3-one], for which the IC50 in test [1] amounted to 200 nM; in test [2] (read-out: WEE1 IC50), 3.48 nM; in test [3] it was 891 nM.
`C=CCn1c(=O)c2cnc(Nc3ccc(N4CC5(CCN(C)CC5)C4)cc3)nc2n1-c1ccc2c(n1)C(C)(O)CC2` (centres unmarked) [Compound I-14, 2-allyl-1-(7-hydroxy-7-methyl-6,7-dihydro-5H-cyclopenta[b]pyridin-2-yl)-6-((4-(7-methyl-2,7-diazaspiro[3.5]nonan-2-yl)phenyl)amino)-1,2-dihydro-3H-pyrazolo[3,4-d]pyrimidin-3-one]: the IC50 stood at 192 nM in test [1], 2.81 nM in test [2] (read-out: WEE1 IC50) and 363 nM in test [3].
On the same counts, the results for `C=CCn1c(=O)c2cnc(Nc3ccc(N4CCN(CC5CC5)CC4)cc3)nc2n1-c1ccc2c(n1)C(O)CC2` (centres unmarked) [Compound I-4] are 395 nM, 4.43 nM and 1970 nM.
On the same counts, the results for `C=CCn1c(=O)c2cnc(Nc3ccc(N4CCC5(CC4)CN(C)C5)cc3)nc2n1-c1ccc2c(n1)C(C)(O)CC2` (centres unmarked) [Compound I-13, 2-allyl-1-(7-hydroxy-7-methyl-6,7-dihydro-5H-cyclopenta[b]pyridin-2-yl)-6-((4-(2-methyl-2,7-diazaspiro[3.5]nonan-7-yl)phenyl)amino)-1,2-dihydro-3H-pyrazolo[3,4-d]pyrimidin-3-one] are 190 nM, 3.41 nM and 886 nM.
For the compound `C=CCn1c(=O)c2cnc(Nc3ccc(N4CCN(C)CC4)cc3)nc2n1-c1ccc2c(n1)C(C)(O)CCC2` (centres unmarked) [Compound I-19, 2-allyl-1-(8-hydroxy-8-methyl-5,6,7,8-tetrahydroquinolin-2-yl)-6-((4-(4-methylpiperazin-1-yl)phenyl)amino)-1,2-dihydro-3H-pyrazolo[3,4-d]pyrimidin-3-one], the IC50 in test [1] was found to be 170 nM; in test [2] (WEE1 IC50, nM), 1.89 nM; in test [3] it was 944 nM.
As for `C=CCn1c(=O)c2cnc(Nc3ccc(N4C[C@H]5CN(C)C[C@H]5C4)cc3)nc2n1-c1ccc2c(n1)C(C)(O)CCC2` (stereo partly drawn) [Compound I-32, 2-allyl-1-(8-hydroxy-8-methyl-5,6,7,8-tetrahydroquinolin-2-yl)-6-((4-((3aR,6aS)-5-methylhexahydropyrrolo[3,4-c]pyrrole-2(1H)-yl)phenyl)amino)-1,2-dihydro-3H-pyrazolo[3,4-d]pyrimidin-3-one], the IC50 was 148 nM in test [1], 4.79 nM in test [2] (read-out: WEE1 IC50) and 541 nM in test [3].
On the same counts, the results for `C=CCn1c(=O)c2cnc(Nc3ccc(N4CCN(CC)CC4)cc3)nc2n1-c1ccc2c(n1)C(O)CC2` (centres unmarked) [Compound I-2] are 345 nM, 2.55 nM and 1740 nM.
On the same counts, the results for `C=CCn1c(=O)c2cnc(Nc3ccc(C4CCC(N(C)C)CC4)cc3)nc2n1-c1ccc2c(n1)C(C)(O)CC2` (centres unmarked) [Compound I-34] are 214 nM, 4.79 nM and 1580 nM.
In the case of `C=CCn1c(=O)c2cnc(Nc3ccc(N4CCNCC4)cc3)nc2n1-c1ccc2c(n1)C(C)(O)CCC2` (centres unmarked) [Compound I-18, 2-allyl-1-(8-hydroxy-8-methyl-5,6,7,8-tetrahydroquinolin-2-yl)-6-((4-(piperazin-1-yl)phenyl)amino)-1,2-dihydro-3H-pyrazolo[3,4-d]pyrimidin-3-one], in test [2] (read-out: WEE1 IC50), the IC50 was determined as 2.03 nM.
For `C=CCn1c(=O)c2cnc(Nc3ccc([C@H]4CC[C@@H](N(C)C)CC4)cc3)nc2n1-c1ccc2c(n1)C(O)CC2` (single isomer, unassigned) [Compound I-30-1], the IC50 in test [2] (read-out: WEE1 IC50) stood at 5.86 nM.
Take `C=CCn1c(=O)c2cnc(Nc3ccc(N4CC5(CC(N(C)C)C5)C4)cc3)nc2n1-c1ccc2c(n1)C(O)CC2` (centres unmarked) [Compound I-42]: half-maximal inhibition in test [1] (IC50) was put at 322 nM.
